Read-outs that look alike come from different tables or passages of the source.
Tests used:
[1] = tested on: rat uterus (uterine cornuae); assay: Uterine relaxant activity, inhibition of spontaneous contractions of the isolated uterus (De Jalon method); design: species or system rat (Sprague Dawley); details: 0.5 γ/ml of bath; for uterine relaxant effect: in words
Procedure: The study was conducted on rat uterus, using the following compounds:
The conventional method of De Jalon, Bayo and De Jalon (1945). Farmacoter. act. 3, 313 -- also reported in the book : "Pharmacological Experiments on Isolated Preparations" by the staff of the Department of Pharmacology, University of Edinburgh, published by E. & S. Livingstone Ltd, London -- was used, the pharmacological investigation being conducted on the uterine cornuae of female rats (Sprague Dawley strain) kept alive in a survival liquid.
A tank containing Tyrode's solution is maintained at a constant temperature of 32°C. The test organ is suspended to a strain gauge for the purpose of recording the contractions on a potentiometric recorder. The uterine cornuae are taken from non-gravid puberal female rats having an average weight of 160 g.
The day prior to the test, the animals are administered a di-ethyl-stilboestrol injection. Postmortem, the cornuae are isolated as rapidly as possible and a 15 mm fragment from which the connective tissue has been removed is placed in the experimental cell.
During oestrum, regular spontaneous contractions (FIG. 1) are noted; such oscillations are stable within 30-60 minutes, after washing several times with suitably oxygenated Tyrode's solution.
Addition to the bath of uterine relaxant material produces, at a low dosage, a total inhibition of such spontaneous contractions.

duodenum of rats = assay: Beta-stimulant action, inhibition of acetylcholine-induced contraction of isolated duodenum; design: species or system rat (Sprague Dawley); details: 0.1 γ/ml of bath; for % Inhibition of cholinergic contraction (beta-stimulant action): acetylcholine 0.1 γ/ml; for beta-stimulant action: in words
Procedure: A comparison was made of the beta-stimulant action of the same compounds as used in the above experiment.
The duodenum of rats (Sprague Dawley strain) weighing about 150 g is taken immediately post-mortem. The test organ is immediately placed in a suitable cell for the isolated organ (oxygenated Tyrode's solution maintained at a temperature of 37°C).
Addition of acetylcholine (0.1 γ/ml) to the bath induces a contraction of the organ which is immediately transmitted via a strain gauge to a potentiometric recording device.
Addition of a beta-stimulant material causes inhibition of this […].
A comparison was made between the actions of various materials on cholinergic contractions.

[2] = tested on: isolated heart (coronary rate of flow); assay: Coronary dilator activity, Langendorff's method on the isolated heart; design: species or system rabbit (Fauve de Bourgogne); ED 50: unit not given beside the values; details: for activation at 0.005 mg: 5 γ injected; for activation at 0.01 mg: 10 γ injected; for activation at 0.02 mg: 20 γ injected; for activation at 0.04 mg: 40 γ injected; for activation at 0.08 mg: 80 γ injected; for ED 50: 50% increase of original coronary rate of flow; for activation at 0.16 mg: 160 γ injected; for activation at 0.025 mg: 25 γ injected; for activation at 0.05 mg: 50 γ injected
Procedure: The coronary dilator activity was studied according to Langendorff's method on the isolated heart.
The tests were carried out on the hearts of young Fauve de Bourgogne (about 1.5 kg) rabbits. The hearts were rapidly taken out and maintained in surviving condition by perfusion of a physiological (Tyrode type) liquid heated at 37°C and oxygenated under a constant pressure of 50-60 cm of water. The heart was perfused countercurrently.
Volumetric determinations of the coronary rate of flow were then recorded at thirty second intervals.
After stabilization of the basic rate of flow, the test compound, dissolved in physiological saline solution, was injected in the perfusion liquid, in a volume of from 0.05 to 0.2 ml.
In the same heart, increasing dosages of all three compounds were tested by injecting alternatively a predetermined dose for each one of the three compounds.
Each injection was made 4-5 minutes after a stable rate of flow was attained.
The tests were carried out as above with three rabbits.

patients = assay: Clinical experiments in patients with anginose states or ischemic diseases of the heart; type: in vivo, human
Procedure: The compound prepared in example 4 (1-(1-hydroxypropyl)-4-[2-(1-methyl-phenethylamino)-ethoxy]-benzene hydrochloride) was experimented in four different Cardiology Services. 211 patients were treated with this compound. These patients suffered from different anginose states or from ichemic diseases of the heart (coronary failures or after-effects of infarct). […] Therefore the tolerance is excellent.

[3] = cited from earlier work
beta receptor = details: International Conference on Duvadilan, May 1962; cited from earlier work
uterus = details: in words; cited from earlier work
[4] = compared to Isoxsuprine; cited from earlier work
[5] = Oryctolagus cuniculus, Table I, heart A, read-out: increase of coronary rate of flow
[6] = Oryctolagus cuniculus, Table I, heart B, read-out: increase of coronary rate of flow
[7] = Oryctolagus cuniculus, Table II, heart No. 1, read-out: increase of coronary rate of flow
[8] = Oryctolagus cuniculus, Table II, heart No. 2, read-out: increase of coronary rate of flow
[9] = Oryctolagus cuniculus, Table II, heart No. 3, read-out: increase of coronary rate of flow

Compound: CC(COc1ccccc1)NC(C)C(O)c1ccccc1 (centres unmarked) [Compound D, reference compound]
- % Inhibition of spontaneous uterine contractions [1]: 70%
- uterine relaxant effect [1]: reduced uterine relaxant effect
- % Inhibition of cholinergic contraction (beta-stimulant action) (duodenum of rats): 100%
- beta-stimulant action (duodenum of rats): highly beta-stimulant action

Compound: CCC(=O)c1ccc(OCCNC(C)Cc2ccccc2)cc1 (centres unmarked) [Example 1, 4-[2-(1-methyl-phenethylamino)-ethoxy]-propiophenone]
- activation at 0.005 mg [2, 5]: 12%
- activation at 0.01 mg [2, 5]: 34%
- activation at 0.02 mg [2, 5]: 47%
- activation at 0.04 mg [2, 5]: 50%
- activation at 0.08 mg [2, 5]: 80.5%
- activation at 0.01 mg [2, 6]: 8%
- activation at 0.02 mg [2, 6]: 37%
- activation at 0.04 mg [2, 6]: 50%
- activation at 0.08 mg [2, 6]: 62%
- ED 50 ([2]; Table I, heart A): 27 γ
- ED 50 ([2]; Table I, heart B): 44 γ
- % Inhibition of spontaneous uterine contractions [1]: 0%
- uterine relaxant effect [1]: absolutely no uterine relaxant effect
- % Inhibition of cholinergic contraction (beta-stimulant action) (duodenum of rats): 15%
- beta-stimulant action (duodenum of rats): only a slight beta-stimulant effect

Compound: CCC(O)c1ccc(OCCNC(C)Cc2ccccc2)cc1 (centres unmarked) [Example 4, 1-(1-hydroxy-propyl)-4[2-(1-methyl-phenethylamino)-ethoxy]-benzene]
- activation at 0.002 mg ([2]; Oryctolagus cuniculus, Table I, heart A, 2 γ injected, read-out: increase of coronary rate of flow): 10%
- activation at 0.005 mg [2, 5]: 30%
- activation at 0.01 mg [2, 5]: 33%
- activation at 0.02 mg [2, 5]: 67%
- activation at 0.04 mg [2, 5]: 93%
- activation at 0.01 mg [2, 6]: 11%
- activation at 0.02 mg [2, 6]: 30%
- activation at 0.04 mg [2, 6]: 55%
- activation at 0.08 mg [2, 6]: 78%
- activation at 0.04 mg [2, 7]: 33%
- activation at 0.08 mg [2, 7]: 54%
- activation at 0.16 mg [2, 7]: 78%
- activation at 0.01 mg [2, 8]: 33%
- activation at 0.02 mg [2, 8]: 50%
- activation at 0.04 mg [2, 8]: 80%
- activation at 0.02 mg [2, 9]: 17%
- activation at 0.04 mg [2, 9]: 46%
- activation at 0.08 mg [2, 9]: 50%
- activation at 0.16 mg [2, 9]: 75%
- ED 50 ([2]; Table I, heart A): 11 γ
- ED 50 ([2]; Table I, heart B): 35 γ
- % Inhibition of spontaneous uterine contractions [1]: 0%
- uterine relaxant effect [1]: absolutely no uterine relaxant effect
- % Inhibition of cholinergic contraction (beta-stimulant action) (duodenum of rats): 15%
- beta-stimulant action (duodenum of rats): only a slight beta-stimulant effect
- contra-indication (patients; 211 patients): no contra-indication
- modification of cardiac frequency and arterial pressure (patients; 211 patients): no modification of the cardiac frequency and of the arterial pressure
- tolerance (patients; 211 patients): excellent
- favourable results (number of patients) (patients; 211 patients treated): 172 patients
- favourable results (share of patients) (patients; 211 patients treated): 81.5%

Compound: CCCC(=O)c1ccc(OCCNC(C)Cc2ccccc2)cc1 (centres unmarked) [Example 5, 4-[2-(1-methyl-phenethylamino)-ethoxy]-butyrophenone]
- activation at 0.01 mg [2, 5]: 21%
- activation at 0.025 mg [2, 5]: 57%
- activation at 0.05 mg [2, 5]: 64%
- activation at 0.01 mg [2, 6]: 16%
- activation at 0.025 mg [2, 6]: 39%
- activation at 0.05 mg [2, 6]: 50%
- ED 50 ([2]; Table I, heart A): 24 γ
- ED 50 ([2]; Table I, heart B): 45 γ

Compound: CC(COc1ccccc1)NC(C)C(O)c1ccc(O)cc1 (centres unmarked) [Isoxsuprine, 1-(p-hydroxyphenyl)-2-(1-methyl-2 phenoxyethylamino) propanol-1, reference compound]
- activation at 0.04 mg [2, 7]: 8%
- activation at 0.08 mg [2, 7]: 20%
- activation at 0.16 mg [2, 7]: 50%
- activation at 0.02 mg [2, 8]: 17%
- activation at 0.04 mg [2, 8]: 43%
- activation at 0.08 mg [2, 8]: 60%
- activation at 0.04 mg [2, 9]: 0%
- activation at 0.08 mg [2, 9]: 17%
- activation at 0.16 mg [2, 9]: 33%
- activation at 0.32 mg ([2]; Oryctolagus cuniculus, Table II, heart No. 3, 320 γ injected, read-out: increase of coronary rate of flow): 50%
- activation at 0.64 mg ([2]; Oryctolagus cuniculus, Table II, heart No. 3, 640 γ injected, read-out: increase of coronary rate of flow): 75%
- % Inhibition of spontaneous uterine contractions [1]: 100%
- uterine relaxant effect [1]: total uterine relaxant action
- % Inhibition of cholinergic contraction (beta-stimulant action) (duodenum of rats): 100%
- beta-stimulant action (duodenum of rats): highly beta-stimulant action
- ventricular stimulability ([3]; in view of beta-stimulant properties): increases ventricular stimulability
- possible occurrence of extrasystoles ([3]; particularly ventricular extrasystoles): increases also the possible occurrence of extrasystoles
- mechanism of uterine relaxant activity (beta receptor): essentially due to beta receptor activation

Compound: CC(COc1ccccc1)NC(C)Cc1ccccc1 (centres unmarked) [N-(2-phenyl-1-methyl-ethyl)-2-phenoxy-1-methyl-ethylamine]
- uterus relaxant activity (uterus): uterus relaxants
- vasodilator activity [4]: reduced vasodilator activity compared to Isoxsuprine

From patent US3959359A, “Phenoxyalkylamines, process for their preparation and therapeutical composition containing same” (priority 1968, dated 1976)
